The source of these data is patent US20230011869A1 (Hoffmann-La Roche Inc., priority 2018, published 2023).

A word on the IC90: it is the concentration needed for an effect of 90%.

Structures can show the parent of a compound that is named as a salt.

For the experiment, the system named is Acinetobacter baumannii ATCC17978. Description: Antimicrobial susceptibility testing: 90% growth inhibitory concentration (IC90) determination, Iso-Sensitest broth. In kind it is cell-based. As to conditions: 90% growth inhibitory concentration, Acinetobacter baumannii ATCC17978, Iso-Sensitest broth, OD 600 nm over 16 h; read-out: ATCC17978 IC90. On the procedure: Antimicrobial Susceptibility Testing:
90% Growth Inhibitory Concentration (IC90) Determination
The in vitro antimicrobial activity of the compounds was determined according to the following procedure:
The assay used a 10-points Iso-Sensitest broth medium to measure quantitatively the in vitro activity of the compounds against Acinetobacter baumannii ATCC17978 and Acinetobacter baumannii ATCC17961.
Microtiter plates were incubated at 35±2° C.
Bacterial cell growth was determined with the measurement of optical density at λ=600 nm each 20 minutes over a time course of 16 h. Growth inhibition was calculated during the logarithmic growth of the bacterial cells with determination of the concentration inhibiting 50% (IC50) and 90% (IC90) of the growth.

For `Cc1cc(Nc2nccn3c(-c4ccc(OC(F)F)cc4)cnc23)ccc1C(=O)N1CCC(CCN)CC1` [Example 3, (4-(2-Aminoethyl)piperidin-1-yl)(4-((3-(4-(difluoromethoxy)phenyl)imidazo[1,2-a]pyrazin-8-yl)amino)-2-methylphenyl)methanone hydrochloride], the IC90 amounted to 110 nM.
On to `Cc1cc(Nc2nccn3c(-c4ccc(OC(F)F)cc4)cnc23)ccc1C(=O)N1CCC(C(N)=O)CC1` [Example 4, 1-(4-((3-(4-(difluoromethoxy)phenyl)imidazo[1,2-a]pyrazin-8-yl)amino)-2-methylbenzoyl)piperidine-4-carboxamide], for which the IC90 worked out at 120 nM.
With `COc1ccc(-c2cnc3c(Nc4ccc(C(=O)N5CCN(C)CC5)c(C)c4)nccn23)cc1` [Example 5, (4-((3-(4-methoxyphenyl)imidazo[1,2-a]pyrazin-8-yl)amino)-2-methylphenyl)(4-methylpiperazin-1-yl)methanone] the figure was 1200 nM; with `COc1ccc(-c2cnc3c(Nc4ccc(C(=O)N5CCOCC5)c(C)c4)nccn23)cc1` [Example 6, (4-((3-(4-methoxyphenyl)imidazo[1,2-a]pyrazin-8-yl)amino)-2-methylphenyl)(morpholine)methanone], 350 nM; with `COc1ccc(-c2cnc3c(Nc4ccc(C(=O)N5CCC(O)CC5)c(C)c4)nccn23)cc1` [Example 7, (4-hydroxypiperidin-1-yl)(4-((3-(4-methoxyphenyl)imidazo[1,2-a]pyrazin-8-yl)amino)-2-methylphenyl)methanone], 660 nM.
The result for `Cc1cc(Nc2nccn3c(-c4ccc(OC(F)F)cc4)cnc23)ccc1C(=O)N1CCC(n2cncn2)CC1` [Example 8, (4-(1H-1,2,4-triazol-1-yl)piperidin-1-yl)(4-((3-(4-(difluoromethoxy)phenyl)imidazo[1,2-a]pyrazin-8-yl)amino)-2-methylphenyl)methanone] reads 130 nM; that for `Cc1cc(Nc2nccn3c(-c4ccc(OC(F)F)cc4)cnc23)ccc1C(=O)N1CCC(N2CCNC2=O)CC1` [Example 9, 1-(1-(4-((3-(4-(difluoromethoxy)phenyl)imidazo[1,2-a]pyrazin-8-yl)amino)-2-methylbenzoyl)piperidin-4-yl)imidazolidin-2-one], 410 nM.
Consider `Cc1cc(Nc2nccn3c(-c4ccc(OC(F)F)cc4)cnc23)ccc1C(=O)N1CCCC(C(N)=O)C1` (stereo not shown) [Example 10, 1-(4-((3-(4-(difluoromethoxy)phenyl)imidazo[1,2-a]pyrazin-8-yl)amino)-2-methylbenzoyl)piperidine-3-carboxamide], for which the concentration for an effect of 90% (IC90) is 1600 nM.
With `CCOC(=O)NC1CCN(C(=O)c2ccc(Nc3nccn4c(-c5ccc(OC(F)F)cc5)cnc34)cc2C)CC1` [Example 11, ethyl (1-(4-((3-(4-(difluoromethoxy)phenyl)imidazo[1,2-a]pyrazin-8-yl)amino)-2-methylbenzoyl)piperidin-4-yl)carbamate], the IC90 stood at 580 nM.
As to `Cc1cc(Nc2nccn3c(-c4ccc(OC(F)F)cc4)cnc23)ccc1C(=O)N1CCC(Oc2ncccn2)CC1` [Example 12], the IC90 came to 720 nM.
As to `Cc1cc(Nc2nccn3c(-c4ccc(OC(F)F)cc4)cnc23)ccc1C(=O)N1CCC(c2nncn2C)CC1` [Example 13, (4-((3-(4-(difluoromethoxy)phenyl)imidazo[1,2-a]pyrazin-8-yl)amino)-2-methylphenyl)(4-(4-methyl-4H-1,2,4-triazol-3-yl)piperidin-1-yl)methanone], the IC90 came to 130 nM.
With `COc1ccc(-c2cnc3c(Nc4ccc(C(=O)N5CCC(C(=O)N6CCNCC6)CC5)c(C)c4)nccn23)cc1F` [Example 14, (1-(4-((3-(3-fluoro-4-methoxyphenyl)imidazo[1,2-a]pyrazin-8-yl)amino)-2-methylbenzoyl)piperidin-4-yl)(piperazin-1-yl)methanone hydrochloride], the 90% effect concentration (IC90) came out at 140 nM.
The result for `CNC(=O)C1CCN(C(=O)c2ccc(Nc3nccn4c(-c5ccc(OC(F)F)cc5)cnc34)cc2C)CC1` [Example 15, 1-(4-((3-(4-(difluoromethoxy)phenyl)imidazo[1,2-a]pyrazin-8-yl)amino)-2-methylbenzoyl)-N-methylpiperidine-4-carboxamide] reads 150 nM; that for `Cc1cc(Nc2nccn3c(-c4ccc(OC(F)F)cc4)cnc23)ccc1C(=O)N1CCC(Cn2cccn2)CC1` [Example 16, (4-((1H-pyrazol-1-yl)methyl)piperidin-1-yl)(4-((3-(4-(difluoromethoxy)phenyl)imidazo[1,2-a]pyrazin-8-yl)amino)-2-methylphenyl)methanone], 930 nM.
Turning to `Cc1cc(Nc2nccn3c(-c4ccc(OC(F)F)cc4)cnc23)ccc1C(=O)N1CCC2(CC1)CNCCO2` [Example 17, (4-((3-(4-(difluoromethoxy)phenyl)imidazo[1,2-a]pyrazin-8-yl)amino)-2-methylphenyl)(1-oxa-4,9-diazaspiro[5.5]undecan-9-yl)methanone], the IC90 amounted to 1300 nM.
As for `Cc1cc(Nc2nccn3c(-c4ccc(OC(F)F)cc4)cnc23)ccc1C(=O)N1CCC(CN)CC1` [Example 18, (4-(aminomethyl)piperidin-1-yl)(4-((3-(4-(difluoromethoxy)phenyl)imidazo[1,2-a]pyrazin-8-yl)amino)-2-methylphenyl)methanone hydrochloride], the IC90 is 150 nM.
With `Cc1cc(Nc2nccn3c(-c4ccc(OC(F)F)cc4)cnc23)ccc1C(=O)N1CCC(C2CNC2)CC1` [Example 20, (4-(azetidin-3-yl)piperidin-1-yl)(4-((3-(4-(difluoromethoxy)phenyl)imidazo[1,2-a]pyrazin-8-yl)amino)-2-methylphenyl)methanone hydrochloride], the IC90 came to 160 nM.
As to `COc1ccc(-c2cnc3c(Nc4ccc(C(=O)N5CCOCC5)c(C)c4)nccn23)cc1Cl` [Example 21, (4-((3-(3-chloro-4-methoxyphenyl)imidazo[1,2-a]pyrazin-8-yl)amino)-2-methylphenyl)(morpholino)methanone], the IC90 is 240 nM.
With `COc1ccc(-c2cnc3c(Nc4ccc(C(=O)N5CCN(C)CC5)c(C)c4)nccn23)cc1Cl` [Example 22, (4-((3-(3-chloro-4-methoxyphenyl)imidazo[1,2-a]pyrazin-8-yl)amino)-2-methylphenyl)(4-methylpiperazin-1-yl)methanone] the figure was 1300 nM.
With `COc1ccc(-c2cnc3c(Nc4ccc(C(=O)N5CCOC(CN(C)C)C5)c(C)c4)nccn23)cc1F` (stereo not shown) [Example 23, [2-[(dimethylamino)methyl]morpholin-4-yl]-[4-[[3-(3-fluoro-4-methoxy-phenyl)imidazo[1,2-a]pyrazin-8-yl]amino]-2-methyl-phenyl]methanone;2,2,2-trifluoroacetic acid] the figure was 1100 nM; with `Cc1cc(Nc2nccn3c(-c4ccc(OC(F)F)cc4)cnc23)ccc1C(=O)N1CCN(CCN)CC1` [Example 24, [4-(2-aminoethyl)piperazin-1-yl]-[4-[[3-[4-(difluoromethoxy)phenyl]imidazo[1,2-a]pyrazin-8-yl]amino]-2-methyl-phenyl]methanone], 670 nM.
For the compound `CN(C)CCN1CCN(C(=O)c2ccc(Nc3nccn4c(-c5ccc(OCC#N)c(F)c5Cl)cnc34)cc2Cl)CC1` [Example 25, 2-[3-chloro-4-[8-[3-chloro-4-[4-[2-(dimethylamino)ethyl]piperazine-1-carbonyl]anilino]imidazo[1,2-a]pyrazin-3-yl]-2-fluoro-phenoxy]acetontrile], the IC90 came to 140 nM.
